Entries after “also recorded” stand apart in the source; their conditions may differ. Where two headings read alike, the source gives them in different places.

The target of assay [1] is T1, human D1 dopamine receptor (clone HGL26) (Homo sapiens, UniProt P21728). Nature of the assay: Adenylyl cyclase activity in membranes of mouse fibroblasts [L-M(TK^-)] expressing HGL26. Type of assay: biochemical. The following applies: for block of dopamine-stimulated adenylyl cyclase activity: dopamine 100 μM, SCH23390 and raclopride 1 μM each.
T1 sequence (P21728 whole entry): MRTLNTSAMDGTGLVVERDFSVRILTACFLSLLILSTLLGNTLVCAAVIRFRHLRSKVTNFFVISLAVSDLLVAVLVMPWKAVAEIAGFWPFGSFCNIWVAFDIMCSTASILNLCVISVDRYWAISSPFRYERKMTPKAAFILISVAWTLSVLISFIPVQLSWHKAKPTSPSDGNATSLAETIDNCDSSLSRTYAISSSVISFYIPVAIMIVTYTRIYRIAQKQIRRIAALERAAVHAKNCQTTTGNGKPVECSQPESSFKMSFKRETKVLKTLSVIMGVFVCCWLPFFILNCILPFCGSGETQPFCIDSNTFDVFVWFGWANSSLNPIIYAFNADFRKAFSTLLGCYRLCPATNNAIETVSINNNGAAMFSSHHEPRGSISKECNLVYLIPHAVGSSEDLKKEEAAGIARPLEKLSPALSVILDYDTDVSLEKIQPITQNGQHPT
The test system of assay [2] is untransfected COS-7 cells. Nature of the assay: Specific binding of [^3 H]SCH23390 to untransfected COS-7 cells. Further details: species or system monkey. The conditions noted are these: data not shown. As for the experimental part:
Membranes were prepared by homogenizing cells with a ConTorque homogenizer at 4° C. in TEM buffer. The homogenate was centrifuged at 800 g for 10 min and the pellet was subjected to a second homogenization and centrifugation. Supernatants were pooled and centrifuged at 100,000 g for 1 h. The pellet was then resuspended in TEM buffer at appropriate protein concentration and stored in small aliquots at -70° C. […] Binding was initiated by the addition of membrane preparation (20-30 μg protein) and carried on at 30° C. for 1 h. Nonspecific binding was defined in the presence of 10 μM (+)Butaclamol. The samples were filtered through glass fiber filters (Schleicher and Schuell No.32) and washed three times with 4 ml ice-cold 10 mM Tris pH 7.4. The radioactivity retained on the filter was counted using a Beckman LS6800 scintillation counter. […] See J. Bunzow et al., Nature 336,783 (1988). […] A LIGAND computer program was used for data analysis and curve fitting.

For assay [3], the target named is T2, human D1 dopamine receptor (clone HGR213-1) (Homo sapiens, UniProt P21728). Type of assay: binding. The following applies: FIG. 4 competition curves. Further details: expressed in transfected cells; host or cells: monkey kidney COS-7 cells, transient, PBC12BI.
T2 sequence (P21728 whole entry, the tested form may be a part): as the sequence (P21728 whole entry) above
In assay [4] the target is T1, human D1 dopamine receptor (clone HGL26). Nature of the assay: Competition for [^125 I]SCH23982 binding to membranes of COS-7 cells expressing HGL26. Set-up: a 2.3 kb EcoRI-XbaI restriction fragment containing the open reading frame was subcloned into the expression vector pCMV5; expressed in transfected cells; host or cells: African green monkey kidney COS-7 cells, transient, pCMV5.

The target in assay [5] is T2, human D1 dopamine receptor (clone HGR213-1). Nature of the assay: cAMP accumulation in human embryonic kidney 293 cells transfected with HGR213-1. (Changes in cAMP serve as a functional read-out for many G protein-coupled receptors.)
A further assay deals with α1-adrenergic receptor. The following applies: α1-adrenergic receptor-transfected COS-7 cells; data not shown.
Assay [6] has as its target T1, human D1 dopamine receptor (clone HGL26). Nature of the assay: Saturation binding of [^125 I]SCH23982 to membranes of COS-7 cells expressing HGL26. Set-up: a 2.3 kb EcoRI-XbaI restriction fragment containing the open reading frame was subcloned into the expression vector pCMV5; expressed in transfected cells; host or cells: African green monkey kidney COS-7 cells, transient, pCMV5. The conditions noted are these: transfected COS-7 membranes vs antisense construct. As for the experimental part: To identify the protein encoded by genomic clone HGL26, a 2.3 kb EcoRI-XbaI restriction fragment containing the open reading frame was subcloned into the expression vector pCMV5 and transiently transfected into African green monkey kidney (COS-7) cells. See Andersson, S. et al., J. Biol. Chem. 264, 8222-8229 (1989). The DEAE-dextran method was used for transient transfection of COS-7 cells. See Cullen, B. Meth. Enzymol. 152, 684-704 (1987). After 48 hours, transfected cells were lysed and homogenized in ice-cold lysis buffer (10 mM Tris HCl, pH 7.4, 5 mM EDTA). The homogenate was centrifuged at 43,000 g for 30 min at 4° C. The resulting pellet was resuspended in lysis buffer, re-homogenized, and re-centrifuged. This pellet was resuspended in an assay buffer containing 50 mM Tris HCl, pH 7.4, 100 mM NaCl, 5 mM EDTA.
See Sidhu, A. et al., J. Eur. J. Pharmacol. 128, 213-220 (1986).

The mark [7] stands for this setting: ~0.3 nM [^125 I]SCH23982, 1 hr, room temperature, means of 2-5 independent determinations, one-site model, read-out: Kd (apparent equilibrium dissociation constant) for [^125 I]SCH23982 binding sites.

Consider `Oc1cc2c(cc1O)C(c1ccccc1)CNCC2` (stereo not drawn) [SKF38393], for which the “stimulation of adenylyl cyclase activity (in words)” value in assay [1] (SKF38393 and quinpirole, 1 μM each) is listed as “also stimulated enzyme activity”.

Take `CN1CCc2cc(Cl)c(O)cc2C(c2ccccc2)C1` (stereo not drawn) [[^3 H]SCH23390]: in assay [2], the “specific binding to untransfected cells” value was “no specific binding”. As to `Oc1ccc(C2CNCCc3c2cc(O)c(O)c3Cl)cc1` (stereo not drawn) [SKF82526], the “potency in competition with [^3 H]SCH23390 (in words)” value in assay [3] was “most potent”. On to `OCCN1CCN(CC/C=C2/c3ccccc3Sc3ccc(C(F)(F)F)cc32)CC1` [cis-flupenthixol], for which the “rank order of ligand potency” value in assay [3] is recorded as “SCH23390<(+)Butaclamol>Flupenthixol>>Haloperidol”. Take `CCN1CCC[C@H]1CNC(=O)c1c(O)c(Cl)cc(Cl)c1OC` (racemic) [raclopride]: the “block of dopamine-stimulated adenylyl cyclase activity” value in assay [1] is recorded as “not by the D2 antagonist raclopride”. For the same molecule, in assay [4] (setting [7]), the Kd is more than 72 µM. As for `OCCC1CCN(CC/C=C2/c3ccc(F)cc3Sc3ccc(C(F)(F)F)cc32)CC1` [cis-piflutixol], the Kd in assay [4] (setting [7]) is 0.0002 µM.

Regarding `CN1CCc2cc(Cl)c(O)cc2[C@@H](c2ccccc2)C1` [SCH23390], in assay [1], the “block of dopamine-stimulated adenylyl cyclase activity” value was “blocked”. Moreover, in assay [5], the “antagonism of agonist-stimulated cAMP production” value is “blocked; also recorded: antagonized”. Moreover, in assay [3], the “potency in competition with [^3 H]SCH23390 (in words)” value is given as “most potent” and the “rank order of ligand potency” value was “SCH23390<(+)Butaclamol>Flupenthixol>>Haloperidol”.

`CNC[C@H](O)c1ccc(O)c(O)c1` [epinephrine]: the “stimulation of phosphatidylinositol (PI) metabolism” value in the assay with α1-adrenergic receptor is reported as “potently evoked this response”. As for `C=CCc1ccccc1OCC(O)CNC(C)C` (stereo not drawn) [alprenolol], the Kd in assay [4] was found to be 16 µM. The same measure, in the same setting: then `O=C(CCCN1CCC2(CC1)C(=O)NCN2c1ccccc1)c1ccc(F)cc1` [spiperone], with 0.22 µM.

In the case of `CN1CCc2cc([125I])c(O)cc2[C@@H](c2ccccc2)C1` [[^125 I]SCH23982], in assay [6], the “increase in specific binding compared to cells transfected with an antisense construct” value is 10- to 30 fold.

For the origin of these results see US5547845A (Duke University, priority 1994, dated 1996).
